Laboratory results from US6197822A, “Neuropeptide antagonists” (Pfizer Inc., priority 2000, dated 2001).

Target: T1, recombinant human NPY 5 receptors (Homo sapiens, UniProt Q15761)
T1 construct: made in house; host or cells: Sf9 insect cells, baculovirus-infected (membranes)
T1 sequence (Q15761 1-445): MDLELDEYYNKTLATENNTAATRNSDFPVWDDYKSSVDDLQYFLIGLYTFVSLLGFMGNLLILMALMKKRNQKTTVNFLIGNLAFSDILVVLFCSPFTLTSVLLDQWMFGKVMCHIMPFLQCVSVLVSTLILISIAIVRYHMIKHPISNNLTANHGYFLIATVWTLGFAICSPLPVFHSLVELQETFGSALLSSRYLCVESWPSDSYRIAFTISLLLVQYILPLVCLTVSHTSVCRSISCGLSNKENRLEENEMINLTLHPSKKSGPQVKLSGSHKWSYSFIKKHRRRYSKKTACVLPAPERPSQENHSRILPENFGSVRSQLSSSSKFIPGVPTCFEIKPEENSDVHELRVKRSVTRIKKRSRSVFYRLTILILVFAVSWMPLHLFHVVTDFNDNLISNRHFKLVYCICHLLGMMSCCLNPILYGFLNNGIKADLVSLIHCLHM
Test: [125I]PYY binding at human NPY5 receptors expressed in Sf9 cells
Settings: [125I]PYY(porcine) displacement, membranes of baculovirus-infected Sf9 cells; read-out: Ki (binding constants in the NPY5)
Method: [^125 I]PYY Binding at Human NPY Receptors Expressed in Sf9 Cells
Baculovirus-infected Sf9 cells expressing recombinant human NPY 5 receptors are harvested at 48 hours. At the time of harvest, cell pellets are resuspended in lysis buffer (20 mM Tris-HCl, pH 7.4, 5 mM EDTA, 0.5 μg/ml leupeptin, 2 μg/ml Aprotonin and […]) and homogenized using a Polytron (setting 3, 25-30 seconds). Homogenates are centrifuged at 4° C. for 5 minutes at 200 x g ([…]) to pellet the nuclei. The supernatant is collected into a fresh tube and centrifuged at 48,000 x g for 10 minutes. Pellets are washed once in lysis buffer and centrifuged. The final pellet is resuspended in PBS and stored in aliquots at -80° C. Purified membranes are washed using PBS and resuspended in binding buffer (50 mM Tris(HCl), pH 7.4, 5 mM KCl, 120 mM NaCl, 2 mM CaCl2, 1 mM MgCl2, 0.1% bovine serum albumin (BSA)). Membranes (20 μg/reaction tube) are added to polypropylene tubes containing 0.035 nM [^125 I]PYY(porcine), displacers ranging from 10^-12 M to 10^-5 M, and buffer to yield a final volume of 0.5 mL. Nonspecific binding is determined in the presence of 1 μM NPY(human) and accounts for 10% of total binding. Following a 2 hour incubation at room temperature, the reaction is terminated by rapid vacuum filtration. […] IC50 values were calculated with the non-linear curve fitting program RS/1 (SigmaPlot, Jandel).

Ki [nM] | Compound
800 | Cc1ccc(NC(=O)C(c2ccccc2)c2ccccc2)cc1 [--CH3]
8 | CCN(CC)c1ccc(NC(=O)C(c2ccccc2)c2ccccc2)cc1 [--N(C2 H5)2]
